Publication PMC8587653 (Molecules, 2021)

Columns and labels:
[1] = biological target: butyrylcholinesterase (E.C. 3.1.1.8, from horse serum) (Equus caballus, UniProt P81908); assay: In vitro butyrylcholinesterase inhibition assay (Ellman's method); format: biochemical; details: for Butyrylcholinesterse (BChE) %inhibition: compounds with <50% inhibition
[2] = biological target: Acetylcholinesterase (E.C.3.1.1.7, from electric eel) (Electrophorus electricus, UniProt O42275); assay: biochemical; format: biochemical; details: for IC50: electric eel AChE, pH 7.7, 37 °C, triplicate, read-out: Acetylcholinesterase (AChE) IC50 ± SEM
[3] = biological target: acetylcholinesterase (Electrophorus electricus, UniProt O42275); assay: Kinetics studies, mechanism of inhibition (Lineweaver-Burk); format: biochemical, electric eel; details: substrate acetylthiocholine iodide; Vmax not affected, Km increased
Description: Enzyme kinetics were used to determine the mechanism of acetylcholinesterase inhibition. Lineweaver-Burk graph ([…]) were used for the determination of the type of inhibition and analysis of effect of inhibitor on Vmax and Kₘ. The slope Km/Vmax of each line in the Lineweaver-Burk plot was plotted against different concentrations of substrate and chemicals to determine the value of Ki.
Kinetics studies were performed on 5b and 5d with different concentrations of compounds and substrate. Four concentrations of 1 mM compound 5b (0, 0.06, 0.12, 0.18 µM), compound 5d (0, 0.3, 0.6, 0.9 µM) and four concentrations of substrate (0, 0.5, 1.0, 1.5 and 2.0 mM showing 1/S as 0.0, 2.0, 1.0, 0.667 and 0.5, respectively) were made. Both compounds competes with substrate (acetylthiocholine iodide) for binding in the active site of acetylcholinesterase.
Michaelis-Menten kinetics experiments were used to determine the type of enzyme inhibition. […] For this purpose, the initial rates of the enzyme inhibition at four concentrations of substrate (0, 0.5, 1.0, 1.5, 2.0 mM) in the absence and presence of four different concentrations of compound 5b (0, 0.06, 0.12, 0.18 µM) and compound 5d (0, 0.3, 0.6, 0.9 µM) against acetylcholinesterase were measured.

Chain of butyrylcholinesterase (E.C. 3.1.1.8, from horse serum) (P81908 whole entry): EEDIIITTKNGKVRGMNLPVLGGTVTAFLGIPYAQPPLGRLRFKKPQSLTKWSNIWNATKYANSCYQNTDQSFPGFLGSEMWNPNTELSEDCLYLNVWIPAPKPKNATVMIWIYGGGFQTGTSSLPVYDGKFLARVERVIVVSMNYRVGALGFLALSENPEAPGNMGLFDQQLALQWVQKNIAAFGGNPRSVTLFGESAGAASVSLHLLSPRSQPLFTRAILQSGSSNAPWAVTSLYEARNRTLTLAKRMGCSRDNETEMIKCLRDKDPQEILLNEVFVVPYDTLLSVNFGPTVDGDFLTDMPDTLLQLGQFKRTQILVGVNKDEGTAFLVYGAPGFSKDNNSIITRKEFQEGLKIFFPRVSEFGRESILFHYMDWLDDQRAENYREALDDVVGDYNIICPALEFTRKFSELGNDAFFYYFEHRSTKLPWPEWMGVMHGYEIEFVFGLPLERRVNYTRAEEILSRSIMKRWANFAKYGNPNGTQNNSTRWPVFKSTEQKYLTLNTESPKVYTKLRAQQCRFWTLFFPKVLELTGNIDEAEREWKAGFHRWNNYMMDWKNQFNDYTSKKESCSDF
Chain of Acetylcholinesterase (E.C.3.1.1.7, from electric eel) (O42275 24-633): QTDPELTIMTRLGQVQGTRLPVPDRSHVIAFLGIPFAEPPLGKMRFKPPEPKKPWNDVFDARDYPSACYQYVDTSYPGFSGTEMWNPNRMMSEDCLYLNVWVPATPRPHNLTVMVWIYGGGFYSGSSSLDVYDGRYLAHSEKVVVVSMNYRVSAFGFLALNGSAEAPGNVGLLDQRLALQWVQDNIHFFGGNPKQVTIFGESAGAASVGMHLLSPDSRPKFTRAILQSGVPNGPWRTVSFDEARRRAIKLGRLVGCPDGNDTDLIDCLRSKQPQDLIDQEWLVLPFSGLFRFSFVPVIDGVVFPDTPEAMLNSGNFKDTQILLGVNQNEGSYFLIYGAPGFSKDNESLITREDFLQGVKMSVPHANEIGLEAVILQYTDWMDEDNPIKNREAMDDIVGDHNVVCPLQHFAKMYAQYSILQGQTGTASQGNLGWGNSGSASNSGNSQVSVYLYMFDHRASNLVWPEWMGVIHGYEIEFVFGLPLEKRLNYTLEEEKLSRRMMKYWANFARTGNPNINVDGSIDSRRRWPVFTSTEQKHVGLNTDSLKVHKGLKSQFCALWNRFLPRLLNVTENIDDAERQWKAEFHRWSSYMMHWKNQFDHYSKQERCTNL
Chain of acetylcholinesterase (O42275 24-633): as above

SMILES | Butyrylcholinesterse (BChE) %inhibition [1] [%] | IC50 [2] [µM] | Mode of inhibition of acetylcholinesterase [3] | Potency against AChE relative to standard drug galantamine ([2]; ratio of IC50 values vs galantamine) [fold] | IC50 ([1]; horse serum BChE, pH 7.7, 37 °C, triplicate, read-out: Butyrylcholinesterse (BChE) IC50 ± SEM) [µM]
S=C(NCCN1CCOCC1)NN=Cc1cc2ccccc2nc1Cl [Compound 5a, 2-((2-Chloroquinolin-3-yl)methylene)-N-(2-morpholinoethyl)hydrazinecarbothioamide] | 3.32 | 2.95 ± 0.24 |  |  | 
COc1ccc2nc(Cl)c(C=NNC(=S)NCCN3CCOCC3)cc2c1 [Compound 5b, 2-((2-Chloro-6-methoxyquinolin-3-yl)methylene)-N-(2-morpholinoethyl)hydrazinecarbothioamide] | 8.12 | 0.12 ± 0.02 | competitive inhibition | 5 | 
COc1ccc2cc(C=NNC(=S)NCCN3CCOCC3)c(Cl)nc2c1 [Compound 5c, 2-((2-Chloro-7-methoxyquinolin-3-yl)methylene)-N-(2-morpholinoethyl)hydrazinecarbothioamide] | 1.33 | 5.53 ± 0.11 |  |  | 
Cc1ccc2cc(C=NNC(=S)NCCN3CCOCC3)c(Cl)nc2c1 [Compound 5d, 2-((2-Chloro-7-methylquinolin-3-yl)methylene)-N-(2-morpholinoethyl)hydrazinecarbothioamide] | 1.52 | 0.55 ± 0.01 | competitive inhibition |  | 
S=C(NCCN1CCOCC1)NN=Cc1cc2ccc(Cl)cc2nc1Cl [Compound 5e, 2-((2,7-Dichloroquinolin-3-yl)methylene)-N-(2-morpholinoethyl)hydrazinecarbothioamide] | 1.88 | 10.5 ± 0.16 |  |  | 
S=C(NN=Cc1cc2ccccc2nc1Cl)Nc1ccccc1 [Compound 5f, 2-((2-Chloroquinolin-3-yl)methylene)-N-phenylhydrazinecarbothioamide] | 4.47 | 23.2 ± 1.28 |  |  | 
COc1ccc2nc(Cl)c(C=NNC(=S)Nc3ccccc3)cc2c1 [Compound 5g, 2-((2-Chloro-6-methoxyquinolin-3-yl)methylene)-N-phenylhydrazinecarbothioamide] |  | 34.2 ± 1.02 |  |  | 11.3 ± 0.67
Cc1ccc2nc(Cl)c(C=NNC(=S)Nc3ccccc3)cc2c1 [Compound 5h, 2-((2-Chloro-6-methylquinolin-3-yl)methylene)-N-phenylhydrazinecarbothioamide] | 32.6 | 49.3 ± 2.49 |  |  | 
COc1ccc2cc(C=NNC(=S)Nc3ccccc3)c(Cl)nc2c1 [Compound 5i, 2-((2-Chloro-7-methoxyquinolin-3-yl)methylene)-N-phenylhydrazinecarbothioamide] | 24.0 | 60.9 ± 6.57 |  |  | 
Cc1ccc2cc(C=NNC(=S)Nc3ccccc3)c(Cl)nc2c1 [Compound 5j, 2-((2-Chloro-7-methylquinolin-3-yl)methylene)-N-phenylhydrazinecarbothioamide] | 16.8 | 46.5 ± 3.12 |  |  | 
S=C(NN=Cc1cc2ccc(Cl)cc2nc1Cl)Nc1ccccc1 [Compound 5k, 2-((2,7-Dichloroquinolin-3-yl)methylene)-N-phenylhydrazinecarbothioamide] | 20.3 | 47.1 ± 1.45 |  |  | 
